From patent US20250057813A1, “APOPTOSIS RELATED PROTEIN IN THE TGF-BETA SIGNALING PATHWAY (ARTS) MIMETIC COMPOUNDS, COMPOSITIONS, METHODS AND USES THEREOF IN INDUCTION OF APOPTOSIS” (Carmel-Haifa University Economic Corporation Ltd., priority 2022, published 2025) come the findings set out here.

The target in this experiment is T1, interaction between ARTS and Bcl2 (Homo sapiens, UniProt P10415).
T1 construct: expressed in transfected cells; host or cells: A-375 or HeLa wt cells (the legend names both)
T1 sequence (P10415 whole entry): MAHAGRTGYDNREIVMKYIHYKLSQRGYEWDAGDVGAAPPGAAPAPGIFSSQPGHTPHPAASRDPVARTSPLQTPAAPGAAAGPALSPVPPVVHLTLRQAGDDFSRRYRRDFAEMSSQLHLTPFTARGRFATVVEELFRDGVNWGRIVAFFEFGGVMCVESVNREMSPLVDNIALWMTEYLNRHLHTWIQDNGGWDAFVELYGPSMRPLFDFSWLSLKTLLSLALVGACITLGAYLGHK
Nature of the experiment: BiFC assay between ARTS and Bcl-2. It is filed as cell-based. The settings on record: 20 μM. An excerpt: The split-Venus BiFC system was used to evaluate close proximity indicating possible direct binding between pairs of proteins. The proteins were fused either to the N-terminal part of the Venus-YFP (yellow fluorescence protein) (VN) or the C-terminal part (VC). All Venus fragments were fused to the C-terminal sequences of these proteins. The Jun and Fos pair was used as a positive control (P.C.), and the Jun and FosdeltaZIP pair was used as a negative control (N.C.). A vector encoding dsRed was used as a transfection efficiency marker. Cells were seeded in 12 well plates overnight. Cells were then transfected with (Bcl-2-VC, ARTS-VN, XIAP-VN and XIAP-VC) for 24-36 hours. Cells were then treated with apoptotic inducing reagents for 24 hrs.

Take `Cn1ccnc1C(=O)c1ccc(NC(=O)C(=O)N[C@H](CO)Cc2ccccc2)cc1` [B3, (S)-N1-(1-hydroxy-3-phenylpropan-2-yl)-N2-(4-(1-methyl-1H-imidazole-2-carbonyl)phenyl)oxalamide]: the “binding of ARTS to Bcl-2” value (3 hours) is “increase” and the “binding of ARTS to Bcl-2” value (24 hours) is listed as “no effect”.
